# Source: ChEMBL document CHEMBL3885881, “DrugMatrix”
# Organism: Rattus norvegicus
# Experiment: DrugMatrix - Regimen: Daily Repeat
# Format: toxicity, organism-based, Sprague-Dawley
# Set-up: regimen Daily Repeat, gender Male, age 6-8 weeks
# Details: in vivo, po, route oral GAVAGE, […]; for ABSOLUTE BASOPHIL / ABSOLUTE EOSINOPHIL / ABSOLUTE LYMPHOCYTE / ABSOLUTE MONOCYTE / ABSOLUTE SEGMENTED NEUTROPHIL / BASOPHIL / EOSINOPHIL / ERYTHROCYTE COUNT / HEMATOCRIT / HEMOGLOBIN / LEUKOCYTE COUNT / LYMPHOCYTE / MEAN CORPUSCULAR HEMOGLOBIN / MEAN CORPUSCULAR HEMOGLOBIN CONCENTRATION / MEAN CORPUSCULAR VOLUME / MONOCYTE / NEUTROPHIL / NUCLEATED RED BLOOD CELLS / PLATELET COUNT: tissue Blood; for ALANINE AMINOTRANSFERASE / ALBUMIN / ALKALINE PHOSPHATASE / ASPARTATE AMINOTRANSFERASE / BLOOD UREA NITROGEN / CARBON DIOXIDE / CHLORIDE / CHOLESTEROL / CREATINE PHOSPHOKINASE / CREATININE / GLUCOSE / LACTATE DEHYDROGENASE / LIPASE / PHOSPHORUS / POTASSIUM / SODIUM / TOTAL BILIRUBIN / TOTAL PROTEIN / URIC ACID: tissue Plasma
# [1] = 0 mg/kg, 72 h, dose level Control, time 3 day
# [2] = 0 mg/kg, 120 h, dose level Control, time 5 day
# [3] = 100 mg/kg, 72 h, dose level Low, time 3 day
structure (smiles),measurement,setting,value
CCCC[C@@H](CC)COC(=O)c1ccccc1C(=O)OC[C@@H](CC)CCCC [BIS(2-ETHYLHEXYL)PHTHALATE],ABSOLUTE BASOPHIL,[1],0 CELLS/uL
same,ABSOLUTE EOSINOPHIL,[1],13.67 CELLS/uL
same,ABSOLUTE LYMPHOCYTE,[1],10069.5 CELLS/uL
same,ABSOLUTE MONOCYTE,[1],50 CELLS/uL
same,ABSOLUTE SEGMENTED NEUTROPHIL,[1],516.83 CELLS/uL
same,BASOPHIL,[1],0%
same,EOSINOPHIL,[1],0.17%
same,ERYTHROCYTE COUNT,[1],5.44 x10E6/uL
same,HEMATOCRIT,[1],33.88%
same,HEMOGLOBIN,[1],13.23 G/DL
same,LEUKOCYTE COUNT,[1],10.65 x10E3/uL
same,LYMPHOCYTE,[1],94.67%
same,MEAN CORPUSCULAR HEMOGLOBIN,[1],24.37 pg
same,MEAN CORPUSCULAR HEMOGLOBIN CONCENTRATION,[1],39.05 G/DL
same,MEAN CORPUSCULAR VOLUME,[1],62.38 fL
same,MONOCYTE,[1],0.67%
same,NEUTROPHIL,[1],4.5%
same,NUCLEATED RED BLOOD CELLS,[1],0.33 /100WBC
same,PLATELET COUNT,[1],414.5 x10E3/uL
same,ALANINE AMINOTRANSFERASE,[1],72 u/L
same,ALBUMIN,[1],3.75 G/DL
same,ALKALINE PHOSPHATASE,[1],375 u/L
same,ASPARTATE AMINOTRANSFERASE,[1],87.5 u/L
same,BLOOD UREA NITROGEN,[1],14 mg/dL
same,CARBON DIOXIDE,[1],27.5 mmol/L
same,CHLORIDE,[1],95.83 MEQ/L
same,CHOLESTEROL,[1],68.5 mg/dL
same,CREATINE PHOSPHOKINASE,[1],284.33 u/L
same,CREATININE,[1],0.16 mg/dL
same,GLUCOSE,[1],156.67 mg/dL
same,LACTATE DEHYDROGENASE,[1],101.83 u/L
same,LIPASE,[1],9.67 u/L
same,PHOSPHORUS,[1],10.33 mg/dL
same,POTASSIUM,[1],5.22 MEQ/L
same,SODIUM,[1],137.67 MEQ/L
same,TOTAL BILIRUBIN,[1],0.13 mg/dL
same,TOTAL PROTEIN,[1],5.43 G/DL
same,URIC ACID,[1],0.8 mg/dL
same,ABSOLUTE BASOPHIL,[2],0 CELLS/uL
same,ABSOLUTE EOSINOPHIL,[2],20.67 CELLS/uL
same,ABSOLUTE LYMPHOCYTE,[2],11518.33 CELLS/uL
same,ABSOLUTE MONOCYTE,[2],47 CELLS/uL
same,ABSOLUTE SEGMENTED NEUTROPHIL,[2],614 CELLS/uL
same,BASOPHIL,[2],0%
same,EOSINOPHIL,[2],0.17%
same,ERYTHROCYTE COUNT,[2],5.61 x10E6/uL
same,HEMATOCRIT,[2],34.25%
same,HEMOGLOBIN,[2],13.38 G/DL
same,LEUKOCYTE COUNT,[2],12.2 x10E3/uL
same,LYMPHOCYTE,[2],94.33%
same,MEAN CORPUSCULAR HEMOGLOBIN,[2],23.83 pg
same,MEAN CORPUSCULAR HEMOGLOBIN CONCENTRATION,[2],39.08 G/DL
same,MEAN CORPUSCULAR VOLUME,[2],61.03 fL
same,MONOCYTE,[2],0.33%
same,NEUTROPHIL,[2],5.17%
same,NUCLEATED RED BLOOD CELLS,[2],0 /100WBC
same,PLATELET COUNT,[2],941.83 x10E3/uL
same,ALANINE AMINOTRANSFERASE,[2],68.83 u/L
same,ALBUMIN,[2],4.12 G/DL
same,ALKALINE PHOSPHATASE,[2],492.67 u/L
same,ASPARTATE AMINOTRANSFERASE,[2],83.33 u/L
same,BLOOD UREA NITROGEN,[2],14 mg/dL
same,CARBON DIOXIDE,[2],37 mmol/L
same,CHLORIDE,[2],98.67 MEQ/L
same,CHOLESTEROL,[2],56.5 mg/dL
same,CREATINE PHOSPHOKINASE,[2],167.33 u/L
same,CREATININE,[2],0.17 mg/dL
same,GLUCOSE,[2],157.5 mg/dL
same,LACTATE DEHYDROGENASE,[2],104.83 u/L
same,LIPASE,[2],10 u/L
same,PHOSPHORUS,[2],10.43 mg/dL
same,POTASSIUM,[2],5.46 MEQ/L
same,SODIUM,[2],143.87 MEQ/L
same,TOTAL BILIRUBIN,[2],0.17 mg/dL
same,TOTAL PROTEIN,[2],5.72 G/DL
same,URIC ACID,[2],0.85 mg/dL
same,ABSOLUTE BASOPHIL,[3],0 CELLS/uL
same,ABSOLUTE EOSINOPHIL,[3],23 CELLS/uL
same,ABSOLUTE LYMPHOCYTE,[3],7479.67 CELLS/uL
same,ABSOLUTE MONOCYTE,[3],44.67 CELLS/uL
same,ABSOLUTE SEGMENTED NEUTROPHIL,[3],819.33 CELLS/uL
same,BASOPHIL,[3],0%
same,EOSINOPHIL,[3],0.33%
same,ERYTHROCYTE COUNT,[3],5.6 x10E6/uL
same,HEMATOCRIT,[3],35.03%
same,HEMOGLOBIN,[3],13.73 G/DL
same,LEUKOCYTE COUNT,[3],8.37 x10E3/uL
same,LYMPHOCYTE,[3],89%
same,MEAN CORPUSCULAR HEMOGLOBIN,[3],24.5 pg
same,MEAN CORPUSCULAR HEMOGLOBIN CONCENTRATION,[3],39.17 G/DL
same,MEAN CORPUSCULAR VOLUME,[3],62.6 fL
same,MONOCYTE,[3],0.67%
same,NEUTROPHIL,[3],10%
same,NUCLEATED RED BLOOD CELLS,[3],0 /100WBC
same,PLATELET COUNT,[3],750.33 x10E3/uL
same,ALANINE AMINOTRANSFERASE,[3],89.33 u/L
same,ALBUMIN,[3],3.97 G/DL
same,ALKALINE PHOSPHATASE,[3],408.33 u/L
same,ASPARTATE AMINOTRANSFERASE,[3],88.67 u/L
same,BLOOD UREA NITROGEN,[3],14 mg/dL
same,CARBON DIOXIDE,[3],26.67 mmol/L
same,CHLORIDE,[3],96 MEQ/L
same,CHOLESTEROL,[3],60 mg/dL
same,CREATINE PHOSPHOKINASE,[3],210.67 u/L
same,CREATININE,[3],0.11 mg/dL
same,GLUCOSE,[3],148.33 mg/dL
same,LACTATE DEHYDROGENASE,[3],81 u/L
same,LIPASE,[3],10.33 u/L
same,PHOSPHORUS,[3],10 mg/dL
same,POTASSIUM,[3],5.11 MEQ/L
same,SODIUM,[3],138.1 MEQ/L
same,TOTAL BILIRUBIN,[3],0.17 mg/dL
same,TOTAL PROTEIN,[3],5.5 G/DL
same,URIC ACID,[3],0.63 mg/dL
